From patent US7713954B2, “Compositions and methods for treating cognitive disorders” (Roche Palo Alto LLC, priority 2004, dated 2010) come the findings set out here.

For assay [1], the target named is T1, human 5-HT6 (Homo sapiens, UniProt P50406).
T1 construct: expressed in transfected cells; host or cells: HEK-293 (HEK293-h5-HT6)
Kind of assay: Competition binding with [3H]-LSD at membranes of HEK-293 cells expressing human 5-HT6. As for the experimental part: All test and control compounds were dissolved in 100% DMSO at 10 mM and diluted as indicated in aqueous assay buffer. K1 values are presented at the mean and standard deviation of 3 separate determinations each consisting of the compound tested at each concentration in duplicate.

For assay [2], the target named is human recombinant 5-HT2A (Homo sapiens, UniProt P28223). Description: Receptor affinity at 5-HT2A (Table 1; only a FLIPR calcium method is described). It is filed as binding. The following applies: read-out: Receptor Affinity (pKi) 5-HT2A (converted).
human recombinant 5-HT2A, sequence (P28223 whole entry): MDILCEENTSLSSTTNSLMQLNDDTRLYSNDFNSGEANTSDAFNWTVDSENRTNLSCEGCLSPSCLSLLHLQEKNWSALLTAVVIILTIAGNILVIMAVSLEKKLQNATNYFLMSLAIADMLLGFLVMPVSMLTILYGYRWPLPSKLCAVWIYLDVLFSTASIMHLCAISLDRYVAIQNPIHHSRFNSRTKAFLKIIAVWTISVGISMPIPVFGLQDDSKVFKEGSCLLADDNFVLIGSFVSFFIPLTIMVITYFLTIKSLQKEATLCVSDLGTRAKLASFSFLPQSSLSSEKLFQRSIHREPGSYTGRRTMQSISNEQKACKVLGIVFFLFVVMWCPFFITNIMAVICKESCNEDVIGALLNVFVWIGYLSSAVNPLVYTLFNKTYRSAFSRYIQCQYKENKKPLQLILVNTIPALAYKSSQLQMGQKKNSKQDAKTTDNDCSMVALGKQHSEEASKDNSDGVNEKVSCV
Assay [3] addresses T2, human recombinant 5-HT2C (Homo sapiens, UniProt P28335).
T2 sequence (P28335 33-458): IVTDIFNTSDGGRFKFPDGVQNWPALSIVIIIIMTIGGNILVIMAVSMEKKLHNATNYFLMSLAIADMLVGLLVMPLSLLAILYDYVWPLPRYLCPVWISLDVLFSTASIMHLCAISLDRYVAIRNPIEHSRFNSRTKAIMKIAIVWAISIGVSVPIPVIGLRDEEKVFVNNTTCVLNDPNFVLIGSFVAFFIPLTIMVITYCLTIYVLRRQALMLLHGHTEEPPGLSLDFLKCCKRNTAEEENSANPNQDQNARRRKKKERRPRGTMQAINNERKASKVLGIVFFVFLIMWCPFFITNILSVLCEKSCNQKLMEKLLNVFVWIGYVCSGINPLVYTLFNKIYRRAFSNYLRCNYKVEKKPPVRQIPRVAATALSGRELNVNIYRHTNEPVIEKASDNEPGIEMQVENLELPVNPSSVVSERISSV
Description: Receptor affinity at 5-HT2C (Table 1; only a FLIPR calcium method is described). It counts as binding.

The target of assay [4] is human recombinant D2 receptor (Homo sapiens, UniProt P14416). Description: Ligand binding affinity at Dopamine D2 receptor. The note with it: read-out: Receptor Affinity (pKi) Dopamine D2 (converted).
human recombinant D2 receptor, sequence (P14416 whole entry): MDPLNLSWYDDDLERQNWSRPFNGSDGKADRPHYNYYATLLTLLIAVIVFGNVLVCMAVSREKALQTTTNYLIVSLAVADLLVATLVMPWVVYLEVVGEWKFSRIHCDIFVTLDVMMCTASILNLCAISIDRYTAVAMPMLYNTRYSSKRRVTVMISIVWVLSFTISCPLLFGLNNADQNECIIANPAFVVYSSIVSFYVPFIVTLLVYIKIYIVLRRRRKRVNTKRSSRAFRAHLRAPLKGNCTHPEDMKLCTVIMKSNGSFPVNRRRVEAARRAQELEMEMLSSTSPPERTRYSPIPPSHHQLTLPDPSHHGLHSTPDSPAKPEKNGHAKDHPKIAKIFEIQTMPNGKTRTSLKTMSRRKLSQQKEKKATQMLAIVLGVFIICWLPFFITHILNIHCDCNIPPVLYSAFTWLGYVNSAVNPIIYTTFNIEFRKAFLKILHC
For assay [5], the target named is T3, Histamine H1 receptor (Cavia porcellus, UniProt P31389).
T3 construct: from tissue; host or cells: guinea-pig cerebellum
T3 sequence (P31389 whole entry): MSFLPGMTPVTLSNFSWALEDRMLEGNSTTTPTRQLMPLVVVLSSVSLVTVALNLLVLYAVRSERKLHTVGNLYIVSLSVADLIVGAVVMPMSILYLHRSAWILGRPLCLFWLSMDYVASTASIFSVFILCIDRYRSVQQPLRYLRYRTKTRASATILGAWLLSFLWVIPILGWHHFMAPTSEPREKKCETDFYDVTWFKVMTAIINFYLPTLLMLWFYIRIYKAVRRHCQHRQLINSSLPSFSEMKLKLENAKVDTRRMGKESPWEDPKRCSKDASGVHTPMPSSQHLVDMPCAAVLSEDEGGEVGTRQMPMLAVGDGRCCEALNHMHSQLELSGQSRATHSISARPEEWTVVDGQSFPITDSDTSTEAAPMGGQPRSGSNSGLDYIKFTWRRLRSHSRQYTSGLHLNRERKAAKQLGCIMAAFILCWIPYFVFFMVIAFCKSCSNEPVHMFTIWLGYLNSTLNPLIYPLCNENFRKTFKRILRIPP
Description: Affinity to Histamine H1 receptor in guinea-pig cerebellum. It is filed as binding. The note with it: read-out: Receptor Affinity (pKi) Histamine H1 (converted).

Assay [6] addresses T4, human recombinant M1 (Homo sapiens, UniProt P11229).
T4 sequence (P11229 1-460): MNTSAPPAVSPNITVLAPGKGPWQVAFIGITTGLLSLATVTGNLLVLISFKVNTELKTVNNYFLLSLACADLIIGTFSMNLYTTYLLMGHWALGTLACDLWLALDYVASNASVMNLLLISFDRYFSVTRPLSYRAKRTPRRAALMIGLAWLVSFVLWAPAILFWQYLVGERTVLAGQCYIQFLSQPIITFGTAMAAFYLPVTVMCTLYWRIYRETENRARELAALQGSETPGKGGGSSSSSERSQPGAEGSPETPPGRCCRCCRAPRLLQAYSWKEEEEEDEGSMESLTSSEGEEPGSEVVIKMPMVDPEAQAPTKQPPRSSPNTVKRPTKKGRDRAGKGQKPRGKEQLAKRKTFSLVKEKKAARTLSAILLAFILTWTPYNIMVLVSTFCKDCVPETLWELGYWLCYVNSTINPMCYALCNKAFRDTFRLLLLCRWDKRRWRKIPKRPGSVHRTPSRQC
Kind of assay: Binding affinity at Muscarinic M1 receptor. The note with it: read-out: Receptor Affinity (pKi) Muscarinic M1 (converted).

Assay [7] concerns the target T5, human recombinant M2 (Homo sapiens, UniProt P08172).
T5 sequence (P08172 1-466): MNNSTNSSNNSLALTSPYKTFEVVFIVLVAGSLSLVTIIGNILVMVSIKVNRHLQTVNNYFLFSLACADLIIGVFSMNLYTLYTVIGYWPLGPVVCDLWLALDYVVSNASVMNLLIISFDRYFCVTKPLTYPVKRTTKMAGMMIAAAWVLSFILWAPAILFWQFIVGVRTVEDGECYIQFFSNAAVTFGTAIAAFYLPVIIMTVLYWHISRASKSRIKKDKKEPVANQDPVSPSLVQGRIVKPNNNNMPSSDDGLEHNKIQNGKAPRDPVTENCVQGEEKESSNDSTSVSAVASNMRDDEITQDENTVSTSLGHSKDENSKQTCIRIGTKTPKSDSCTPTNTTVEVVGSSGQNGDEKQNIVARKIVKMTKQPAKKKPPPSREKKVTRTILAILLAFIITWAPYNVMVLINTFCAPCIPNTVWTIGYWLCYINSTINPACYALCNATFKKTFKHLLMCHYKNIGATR
Description: Binding affinity at Muscarinic M2 receptor. The following applies: read-out: Receptor Affinity (pKi) Muscarinic M2 (converted).

The subject of assay [8] is male Wistar rats. Kind of assay: Novel object recognition model, scopolamine-induced memory impairment. It is filed as in vivo, rat. The note with it: for reversal of the memory impairment induced by scopolamine (discrimination index d2): 90 or 60 mins prior to scopolamine 0.1 mg/kg ip; for reversal of scopolamine-induced memory impairment (discrimination index d2): with scopolamine 0.1 mg/kg sc, 30 mins prior to re-release. As for the experimental part:
Twenty-four 5-month-old male Wistar rats were used. The animals were housed individually in standard Makrolon cages on sawdust bedding in an air-conditioned room (about 20° C.). They were kept under a 12/12-hour light/dark cycle (lights on from 18.00 to 6.00 h) and had free access to food and water. Rats were housed and test in different rooms. A radio, which was playing softly, provided background noise in all rooms. All testing was done between 9.00 and 16.00 h.
Scopolamine hydrobromide was prepared daily and dissolved in saline. […] (injection volume 1 ml/kg) 30 minutes before trial 1. Test compounds were prepared daily and dissolved in saline, and the pH was adjusted to pH 5-7 using (0.1 N) NaOH. The compounds were administered orally or i.p. over a range of doses to n=12-24 animals per dose (injection volume 1 ml/kg). Time of dosing prior to first trial (T1) can be chosen to match the expected plasma Cmax for the compound. Administration was always given i.p. (injection volume 1 ml/kg).
The object recognition test was performed as described by Ennaceur and Delacour, Behav. Brain Res., 1988, 31, 47-59. This test measures the memory of an animal, by testing the ability of the animal to recognize that there is a new object in its environment. The apparatus consisted of a circular arena, 83 cm in diameter. Half of the 40 cm high wall was made of gray polyvinyl chloride, the other half of transparent polyvinyl chloride. The light intensity was equal in the different parts of the apparatus. Two objects were placed in a symmetrical position about 10 cm away from the gray wall. Each object was available in triplicate. Four different sets of objects were used: 1) a cone consisting of a gray polyvinyl chloride base (maximal diameter 18 cm) with a brass collar on top (total height 16 cm), 2) a standard 1 l transparent glass bottle (diameter 10 cm, height 22 cm) filled with sand, 3) a massive metal block (10.0×5.0×7.5 cm) with two holes (diameter 1.9 cm), and 4) a massive aluminum block with a tapering top (13.0×8.0×8.0 cm). A rat could not displace the objects. Fluorescent red tubes and a light bulb provided a constant illumination of about 20 lux on the floor of the apparatus.
A testing session comprised two trials. The duration of each trial was 3 min. During the first trial (T1) the apparatus contained two identical objects (samples). A rat was always placed in the apparatus facing the wall at the middle of the front (transparent) segment. After the first exploration period the rat was put back in its home cage. Subsequently, after a predetermined delay interval, the rat was put back in the apparatus for the second trial (T2), but now with two dissimilar objects, a familiar one (the sample) and a new object. The times spent in exploring each object during T1 and T2 were recorded manually with a personal computer. “Exploration” was defined as directing the nose to the object at a distance of no more than 2 cm and/or touching the object with the nose. Sitting on the object was not considered as exploratory behavior. In order to avoid the presence of olfactory trails the objects were always thoroughly cleaned. […]
Rats were treated with Compound 18 (0.3, 1, 3 mg/kg po) or Compound 3 (0.1, 0.3, 1 and 3 mg/kg i.p.) 90 or 60 mins prior to administration of scopolamine (0.1 mg/kg ip). The time each animal spent investigating the novel and familiar objects in the arena during a over a 3 min interval, commencing 30 minutes after the administration of scopolamine, was scored. […]

The subject of assay [9] is rat brain hippocampal slices (CA1 region). Description: Long term potentiation in rat hippocampal slices (CA1), fEPSP. It is filed as cell-based. The note with it: weak tetanus 50 Hz, 500 ms; room temperature.
[10] abbreviates: [3H]-LSD, HEK293-h5-HT6 membranes, read-out: Receptor Affinity (pKi) 5-HT6 (converted).
Setting [11] is: read-out: Receptor Affinity (pKi) 5-Ht2C (converted).

Like-named read-outs stand apart in the source and are kept apart here. Bounds are passed on as bounds.

T1 sequence (P50406 whole entry): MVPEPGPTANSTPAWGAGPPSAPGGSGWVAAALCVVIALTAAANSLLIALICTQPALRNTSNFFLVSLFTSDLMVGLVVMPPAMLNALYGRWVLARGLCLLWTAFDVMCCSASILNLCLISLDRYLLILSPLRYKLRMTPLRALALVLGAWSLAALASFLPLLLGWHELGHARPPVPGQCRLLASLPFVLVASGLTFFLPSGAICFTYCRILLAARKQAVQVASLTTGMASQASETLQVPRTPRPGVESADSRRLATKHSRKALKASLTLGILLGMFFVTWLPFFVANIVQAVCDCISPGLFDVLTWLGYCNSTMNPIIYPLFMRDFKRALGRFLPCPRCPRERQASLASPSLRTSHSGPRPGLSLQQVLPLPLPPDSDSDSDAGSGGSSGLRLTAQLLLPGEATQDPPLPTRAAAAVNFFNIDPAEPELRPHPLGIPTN

Regarding `O=C1COc2c(N3CCNCC3)cccc2N1Cc1ccccc1` [Compound 3, 4-benzyl-8-piperazin-1-yl-4H-benzo[1,4]oxazin-3-one], the Ki in [1] is 0.158 nM; in [2] it was 1.26 nM; in [3], 63.1 nM; in [4] it was more than 1000 nM; in assay [5], more than 1000 nM; in [6], more than 1000 nM. Moreover, the Ki in assay [7] is more than 1000 nM. The “reversal of the memory impairment induced by scopolamine (discrimination index d2)” value in assay [8] (0.3 mg/kg i.p.) is given as “statistically significant reversal”.

For `O=C1NCc2c(N3CCNCC3)cccc2N1Cc1cccc(F)c1` [Compound 18, 1-(3-Fluoro-benzyl)-5-piperazin-1-yl-3,4-dihydro-1H-quinazolin-2-one], the Ki in assay [1] was 0.631 nM; in assay [2], 2 nM; in [3], 63.1 nM; in assay [4], more than 1000 nM; in assay [5], more than 1000 nM; in [6], more than 1000 nM. For the same compound, the Ki in assay [7] was more than 1000 nM. Besides, the “reversal of the memory impairment induced by scopolamine (discrimination index d2)” value in assay [8] (0.3 mg/kg po) and in assay [8] (1 mg/kg po) was “statistically significant reversal” each time.

With `CN1CCN(c2cccc3c(S(=O)(=O)c4ccccc4)c[nH]c23)CC1` [Compound 32, 3-phenylsulfonyl-7-(4-methyl-piperazin-1-yl)-1H-indole], the Ki was 0.316 nM in assay [1] (setting [10]); 79.4 nM in assay [2]; 158 nM in assay [3] (setting [11]); more than 1000 nM in assay [4]; more than 316 nM in [5]; more than 316 nM in assay [6]. Further, the Ki in assay [7] is more than 316 nM. Moreover, the “reversal of scopolamine-induced memory impairment (discrimination index d2)” value in assay [8] (3 mg/kg ip) is on record as “Statistically significant reversal”.

`N=C(N)NCC1CCCc2cc(S(=O)(=O)c3ccccc3)ccc21` (stereo not drawn) [Compound 52, N-(6-Phenylsulfonyl-1,2,3,4-tetrahydro-naphthalen-1-ylmethyl)-guanidine]: the Ki in [1] (setting [10]) was 1.26 nM; in assay [2] it was 794 nM; in [3] (setting [11]) it was 1000 nM; in assay [4] it was more than 1000 nM; in [5], more than 1000 nM; in assay [6], more than 1000 nM. In addition, the Ki in [7] was more than 1000 nM.

`O=c1[nH]c2c(N3CCNCC3)cccc2n1Cc1ccccc1` [Compound 64, 1-Benzyl-4-piperazin-1-yl-1,3-dihydro-benzoimidazol-2-one]: the Ki in assay [1] is 0.251 nM; in assay [2] it was 25.1 nM; in [3] (setting [11]), 631 nM; in assay [4], more than 1000 nM; in assay [5] it was more than 316 nM; in [6] it was 200 nM. In addition, in [7], the Ki is more than 316 nM.

For the compound `COc1cccc([C@H](O)C2CCN(CCc3ccc(F)cc3)CC2)c1OC` [MDL-100907, R-α-(2,3-dimethoxyphenyl)-1-[2-(4-fluorophenyl)ethyl]-4-piperidinemethanol, reference compound], the “reversal of scopolamine-induced memory impairment (discrimination index d2)” value in assay [8] (0.3 mg/kg ip) was “Statistically significant reversal”. For the same compound, the “long term potentiation, increase in slope of fEPSP relative to pre-tetanus baseline” value in assay [9] was “Increase in long term potentiation”.

As for `CN(C)CCO/N=C(/C=C/c1ccc(O)cc1)c1ccccc1F` [SR46349B, (1Z,2E)-1-(2-fluorophenyl)-3-(4-hydroxyphenyl)prop-2-en-1-one-O-(2-dimethylaminoethyl)oxime, reference compound], the Ki in [1] (setting [10]) is more than 1000 nM; in assay [2] it was 1 nM; in assay [3], 100 nM; in assay [4] it was more than 1000 nM; in assay [5], more than 1000 nM; in assay [6], more than 316 nM. The Ki in assay [7] was more than 1000 nM.
